Patent publication US9174994B2, “Enhanced treatment regimens using mTor inhibitors” (INTELLIKINE LLC, priority 2011, dated 2015)

Test: Phase I clinical trial: treatment-emergent adverse events (patients, n (%)), dose limiting toxicity, MTD
Type: in vivo
Experimental: Safety, maximum tolerated dose (MTD), pharmacokinetics (PK) and preliminary antitumor activity were evaluated.
Pharmacodynamic (PD) endpoints were evaluated in surrogate (peripheral blood cells [PBCs], skin) and tumor tissues for the phosphorylation of TORC1-dependent markers (4EBP1/S6), and TORC2-dependent markers (AKT/PRAS40).

Structure (SMILES): CC(C)n1nc(-c2ccc3oc(N)nc3c2)c2c(N)ncnc21 [compound A]
- Oral discomfort (7 mg/week (N = 3)): 0 (0%)
- Patients Reporting at Least One Related TEAE (7 mg/week (N = 3)): 3
- Pruritus (7 mg/week (N = 3)): 0 (0%)
- RASH (7 mg/week (N = 3)): 0 (0%)
- Rash (7 mg/week (N = 3)): 0 (0%)
- Vomiting (7 mg/week (N = 3)): 2 (67%)
- WEAKNESS (7 mg/week (N = 3)): 0 (0%)
- Alanine aminotransferase increased (9 mg/3 W, QDx3d QW (N = 5)): 0 (0%)
- Asthenia (9 mg/3 W, QDx3d QW (N = 5)): 1 (20%)
- Catheter site inflammation (9 mg/3 W, QDx3d QW (N = 5)): 0 (0%)
- Catheter site pain (9 mg/3 W, QDx3d QW (N = 5)): 0 (0%)
- Decreased appetite (9 mg/3 W, QDx3d QW (N = 5)): 0 (0%)
- Diarrhoea (9 mg/3 W, QDx3d QW (N = 5)): 1 (20%)
- Dry skin (9 mg/3 W, QDx3d QW (N = 5)): 1 (20%)
- Dysgeusia (9 mg/3 W, QDx3d QW (N = 5)): 0 (0%)
- Dyspnoea (9 mg/3 W, QDx3d QW (N = 5)): 1 (20%)
- Fatigue (9 mg/3 W, QDx3d QW (N = 5)): 0 (0%)
- Headache (9 mg/3 W, QDx3d QW (N = 5)): 0 (0%)
- Hyperbilirubinaemia (9 mg/3 W, QDx3d QW (N = 5)): 0 (0%)
- Hypercholesterolaemia (9 mg/3 W, QDx3d QW (N = 5)): 1 (20%)
- Hyperglycaemia (9 mg/3 W, QDx3d QW (N = 5)): 1 (20%)
- Hypertransaminasaemia (9 mg/3 W, QDx3d QW (N = 5)): 1 (20%)
- Hypertriglyceridaemia (9 mg/3 W, QDx3d QW (N = 5)): 1 (20%)
- Hypomagnesaemia (9 mg/3 W, QDx3d QW (N = 5)): 1 (20%)
- Hypotension (9 mg/3 W, QDx3d QW (N = 5)): 1 (20%)
- Low fever (9 mg/3 W, QDx3d QW (N = 5)): 0 (0%)
- Lymphopenia (9 mg/3 W, QDx3d QW (N = 5)): 1 (20%)
- Mucosal inflammation (9 mg/3 W, QDx3d QW (N = 5)): 2 (40%)
- Nausea (9 mg/3 W, QDx3d QW (N = 5)): 2 (40%)
- Palmar-plantar erythrodysaesthesia syndrome (9 mg/3 W, QDx3d QW (N = 5)): 1 (20%)
- Patients Reporting at Least One Related TEAE (9 mg/3 W, QDx3d QW (N = 5)): 4 (80%)
- Platelet count decreased (9 mg/3 W, QDx3d QW (N = 5)): 0 (0%)
- Pruritus (9 mg/3 W, QDx3d QW (N = 5)): 2 (40%)
- Pyrexia (9 mg/3 W, QDx3d QW (N = 5)): 0 (0%)
- Rash (9 mg/3 W, QDx3d QW (N = 5)): 3 (60%)
- Rash macular (9 mg/3 W, QDx3d QW (N = 5)): 0 (0%)
- Urinary tract infection (9 mg/3 W, QDx3d QW (N = 5)): 1 (20%)
- Vomiting (9 mg/3 W, QDx3d QW (N = 5)): 2 (40%)
- Asthenia (9 mg/3 W, QDx3d QW (N = 5), 2nd Asthenia line): 0 (0%)
- Diarrhoea (10 mg/5 W, QDx5d QW (N = 3)): 0 (0%)
- Patients Reporting at Least One Related TEAE (10 mg/5 W, QDx5d QW (N = 3)): 1 (33%)
- Rash (10 mg/5 W, QDx5d QW (N = 3)): 0 (0%)
- Urine tract infection (10 mg/5 W, QDx5d QW (N = 3)): 1 (33%)
- Vomiting (10 mg/5 W, QDx5d QW (N = 3)): 1 (33%)
- Nausea (10 mg/5 W, QDx5d QW (N = 3), 1st Nausea line): 1 (33%)
- Nausea (10 mg/5 W, QDx5d QW (N = 3), 2nd Nausea line): 0 (0%)
- ASTHENIA (10 mg/week (N = 3)): 0 (0%)
- ATHENIA (10 mg/week (N = 3)): 0 (0%)
- Alanine aminotransferase increased (10 mg/week (N = 3)): 0 (0%)
- Aspartate aminotransferase increased (10 mg/week (N = 3)): 1 (33%)
- Asthenia (10 mg/week (N = 3)): 0 (0%)
- Blood creatinine increased (10 mg/week (N = 3)): 0 (0%)
- Blood triglycerides increased (10 mg/week (N = 3)): 0 (0%)
- DIARRHEA (10 mg/week (N = 3)): 0 (0%)
- Decreased appetite (10 mg/week (N = 3)): 0 (0%)
- Diarrhoea (10 mg/week (N = 3)): 0 (0%)
- Dysgeusia (10 mg/week (N = 3)): 0 (0%)
- Dyspepsia (10 mg/week (N = 3)): 0 (0%)
- HYPERGLYCEMIA (10 mg/week (N = 3)): 0 (0%)
- Hyperglycaemia (10 mg/week (N = 3)): 1 (33%)
- Lymphopenia (10 mg/week (N = 3)): 0 (0%)
- Malaise (10 mg/week (N = 3)): 0 (0%)
- Mucosal inflammation (10 mg/week (N = 3)): 0(0%)
- Muscle spasms (10 mg/week (N = 3)): 0 (0%)
- Nausea (10 mg/week (N = 3)): 2 (67%)
- Oral discomfort (10 mg/week (N = 3)): 1 (33%)
- Patients Reporting at Least One Related TEAE (10 mg/week (N = 3)): 2 (67%)
- Pruritus (10 mg/week (N = 3)): 0 (0%)
- RASH (10 mg/week (N = 3)): 0 (0%)
- Rash (10 mg/week (N = 3)): 0 (0%)
- Vomiting (10 mg/week (N = 3)): 1 (33%)
- WEAKNESS (10 mg/week (N = 3)): 0 (0%)
- Alanine aminotransferase increased (12 mg/3 W, QDx3d QW (N = 3)): 0 (0%)
- Asthenia (12 mg/3 W, QDx3d QW (N = 3)): 1 (33%)
- Catheter site inflammation (12 mg/3 W, QDx3d QW (N = 3)): 1 (33%)
- Catheter site pain (12 mg/3 W, QDx3d QW (N = 3)): 1 (33%)
- Decreased appetite (12 mg/3 W, QDx3d QW (N = 3)): 1 (33%)
- Diarrhoea (12 mg/3 W, QDx3d QW (N = 3)): 0 (0%)
- Dry skin (12 mg/3 W, QDx3d QW (N = 3)): 0 (0%)
- Dysgeusia (12 mg/3 W, QDx3d QW (N = 3)): 1 (33%)
- Dyspnoea (12 mg/3 W, QDx3d QW (N = 3)): 0 (0%)
- Fatigue (12 mg/3 W, QDx3d QW (N = 3)): 0 (0%)
- Headache (12 mg/3 W, QDx3d QW (N = 3)): 0 (0%)
- Hyperbilirubinaemia (12 mg/3 W, QDx3d QW (N = 3)): 0 (0%)
- Hypercholesterolaemia (12 mg/3 W, QDx3d QW (N = 3)): 0 (0%)
- Hyperglycaemia (12 mg/3 W, QDx3d QW (N = 3)): 2 (67%)
- Hypertransaminasaemia (12 mg/3 W, QDx3d QW (N = 3)): 0 (0%)
- Hypertriglyceridaemia (12 mg/3 W, QDx3d QW (N = 3)): 0 (0%)
- Hypomagnesaemia (12 mg/3 W, QDx3d QW (N = 3)): 0 (0%)
- Hypotension (12 mg/3 W, QDx3d QW (N = 3)): 0 (0%)
- Low fever (12 mg/3 W, QDx3d QW (N = 3)): 0 (0%)
- Lymphopenia (12 mg/3 W, QDx3d QW (N = 3)): 0 (0%)
- Mucosal inflammation (12 mg/3 W, QDx3d QW (N = 3)): 1 (33%)
- Nausea (12 mg/3 W, QDx3d QW (N = 3)): 2 (67%)
- Palmar-plantar erythrodysaesthesia syndrome (12 mg/3 W, QDx3d QW (N = 3)): 0 (0%)
- Patients Reporting at Least One Related TEAE (12 mg/3 W, QDx3d QW (N = 3)): 2 (67%)
- Platelet count decreased (12 mg/3 W, QDx3d QW (N = 3)): 0 (0%)
- Pruritus (12 mg/3 W, QDx3d QW (N = 3)): 1 (33%)
- Pyrexia (12 mg/3 W, QDx3d QW (N = 3)): 0 (0%)
- Rash (12 mg/3 W, QDx3d QW (N = 3)): 0 (0%)
- Rash macular (12 mg/3 W, QDx3d QW (N = 3)): 1 (33%)
- Urinary tract infection (12 mg/3 W, QDx3d QW (N = 3)): 0 (0%)
- Vomiting (12 mg/3 W, QDx3d QW (N = 3)): 0 (0%)
- Asthenia (12 mg/3 W, QDx3d QW (N = 3), 2nd Asthenia line): 0 (0%)
- ASTHENIA (15 mg/week (N = 3)): 0 (0%)
- ATHENIA (15 mg/week (N = 3)): 0 (0%)
- Alanine aminotransferase increased (15 mg/week (N = 3)): 0 (0%)
- Aspartate aminotransferase increased (15 mg/week (N = 3)): 0 (0%)
